The results in this text go back to patent publication US20080045507A1, “SUBSTITUTED BENZAMIDE MODULATORS OF THE HISTAMINE H3 RECEPTOR” (priority 2006, published 2008).

Test [1] addresses T1, human H3 receptor (Homo sapiens, UniProt Q9Y5N1).
T1 construct: expressed in transfected cells
The experiment in a line: H3 receptor binding, cloned human H3 receptor stably expressed in SK-N-MC cells. The settings on record: average of results. On the procedure:
(§1) Binding of compounds to the cloned human and rat H3 receptors, stably expressed in SK-N-MC cells, was performed as described by Barbier, A. J. et al. (Br. J. Pharmacol. 2004, 143(5), 649-661). Data for compounds tested in these assays are presented in Table 1 (human) and Table 2 (rat), as an average of the results obtained.

For test [2], the target named is T2, rat H3 receptor (Rattus norvegicus, UniProt Q9QYN8).
T2 construct: expressed in transfected cells
The test is described as follows: H3 receptor binding, cloned rat H3 receptor stably expressed in SK-N-MC cells. The settings on record: average of results. The protocol: as §1

The target of test [3] is T1, human H3 receptor. The test is described as follows: Cyclic AMP accumulation, SK-N-MC subline with reporter construct and human H3 receptor. The class given is cell-based. As to conditions: cAMP accumulation, SK-N-MC reporter cells expressing human H3; average of results; read-out: Human pA2 (converted). The source says: (§2) Sublines of SK-N-MC cells were created that expressed a reporter construct and either the human or rat H3 receptor. The pA2 values were obtained as described by Barbier et al. (2004). Data for compounds tested in these assays are presented in Table 3, as an average of the results obtained (NT=not tested).
On the technique in general: Cyclic AMP is a second messenger, typically raised through Gs and lowered through Gi signalling.

The target of test [4] is T2, rat H3 receptor. The experiment in a line: Cyclic AMP accumulation, SK-N-MC subline with reporter construct and rat H3 receptor. The class given is cell-based. As to conditions: cAMP accumulation, SK-N-MC reporter cells expressing rat H3; average of results; read-out: Rat pA2 (converted).
From the text: as §2

T2 sequence (Q9QYN8 whole entry): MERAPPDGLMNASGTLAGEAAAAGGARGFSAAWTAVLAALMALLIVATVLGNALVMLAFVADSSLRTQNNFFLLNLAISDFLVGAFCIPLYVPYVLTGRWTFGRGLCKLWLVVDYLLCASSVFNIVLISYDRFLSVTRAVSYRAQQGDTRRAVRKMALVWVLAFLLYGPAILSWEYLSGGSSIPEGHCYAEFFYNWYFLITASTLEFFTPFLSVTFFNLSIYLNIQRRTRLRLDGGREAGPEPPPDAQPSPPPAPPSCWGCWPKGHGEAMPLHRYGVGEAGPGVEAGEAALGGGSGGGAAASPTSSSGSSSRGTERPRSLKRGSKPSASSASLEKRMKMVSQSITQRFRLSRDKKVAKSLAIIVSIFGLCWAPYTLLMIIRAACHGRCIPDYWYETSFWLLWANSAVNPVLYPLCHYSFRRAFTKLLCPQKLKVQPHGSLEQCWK
T1 sequence (Q9Y5N1 whole entry): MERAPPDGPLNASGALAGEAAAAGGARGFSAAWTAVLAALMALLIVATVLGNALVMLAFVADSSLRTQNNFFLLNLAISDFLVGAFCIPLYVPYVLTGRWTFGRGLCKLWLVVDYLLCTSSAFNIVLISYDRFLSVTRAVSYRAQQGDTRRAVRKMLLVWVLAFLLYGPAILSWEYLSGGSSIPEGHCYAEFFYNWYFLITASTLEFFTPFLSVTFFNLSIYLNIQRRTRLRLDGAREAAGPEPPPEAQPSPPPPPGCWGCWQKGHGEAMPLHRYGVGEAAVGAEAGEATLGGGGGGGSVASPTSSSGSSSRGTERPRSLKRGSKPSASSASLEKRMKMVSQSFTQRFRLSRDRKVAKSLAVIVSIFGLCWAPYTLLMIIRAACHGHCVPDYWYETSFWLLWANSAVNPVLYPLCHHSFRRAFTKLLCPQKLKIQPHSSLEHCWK

On to `CC(C)N1CCCN(C(=O)c2ccc(C(O)C3CCCCC3)cc2)CC1` (stereo not shown) [Example 7, [4-(Cyclohexyl-hydroxy-methyl)-phenyl]-(4-isopropyl-[1,4]diazepan-1-yl)-methanone], for which the figures for the Ki in test [1] and in test [2] were 2 nM and 75 nM, respectively. For the same compound, the Kb is 0.871 nM in test [3] and 17.4 nM in test [4].
The like results for `O=C(c1ccc(C(O)C2CCCCC2)cc1)N1CCCN(C2CC2)CC1` (stereo not shown) [Example 27, [4-(Cyclohexyl-hydroxy-methyl)-phenyl]-(4-cyclopropyl-[1,4]diazepan-1-yl)-methanone] were, in that order, 1 nM, 37 nM, 0.955 nM and 6.92 nM.
For `O=C(c1ccc(C(=O)N2CCCN(C3CC3)CC2)cc1)C1CCCCC1` [Example 29, (4-Cyclohexanecarbonyl-phenyl)-(4-cyclopropyl-[1,4]diazepan-1-yl)-methanone], in test [1], the Ki was determined as 1 nM. For the same compound, the Kb is 0.912 nM in test [3] and 6.92 nM in test [4].
Turning to `O=C(c1ccc(C(O)c2ccccc2)cc1)N1CCCN(C2CC2)CC1` (stereo not shown) [Example 30, (4-Cyclopropyl-[1,4]diazepan-1-yl)-[4-(hydroxy-phenyl-methyl)-phenyl]-methanone], the inhibition constant (Ki) in test [1] came out at 2 nM; in test [2] it was 28 nM. For the same compound, the Kb is 0.417 nM in test [3] and 1.51 nM in test [4].
`CC(C)C(O)c1ccc(C(=O)N2CCCN(C3CC3)CC2)cc1` (stereo not shown) [Example 32, (4-Cyclopropyl-[1,4]diazepan-1-yl)-[4-(1-hydroxy-2-methyl-propyl)-phenyl]-methanone] had a Ki in test [1] of 3 nM. Besides, the Kb in test [3] is 0.794 nM; in test [4], 12 nM.
Take `CC(C)(C)c1ccc(C(=O)N2CCN(C3CCC3)CC2)cc1` [Example 33, (4-tert-Butyl-phenyl)-(4-cyclobutyl-piperazin-1-yl)-methanone]: the inhibitory constant (Ki) in test [1] stood at 5 nM; in test [2], 152 nM. In addition, the Kb in test [3] is 3.63 nM; in test [4], 13.5 nM.

A word on the Ki: it is a dissociation constant, usually derived from enzyme kinetics or from competition with a known ligand.
